Test results: US10301520B2, “Compositions of hydrochlorofluoroolefins” (Arkema Inc., priority 2008, dated 2019)

Tests used:
[1] = Flash point, ASTM D3278-96; format: physicochemical
Excerpt: Flammability of a solvent is related to safety of its use. For most application, it is desirable that a solvent have as low a flammable as possible. The flammability of E-1233zd was characterized by flash point measured according to ASTM D3278-96. The flash point of TDCE and HCFC 225 were used as comparative examples.

AMES testing = format: cell-based; settings: compared with the cis isomer
Excerpt: A major portion of the HCFO-1233zd of the present invention is the trans isomer. […] A preferred ratio of trans and cis isomers of HCFO-1233zd is less than about 30% weight of the combination of the cis isomer, and preferably less than about 10% of the cis isomer. The most preferred ratio is less than about 3% of the cis isomer. […] The preferred Kauri-butanol value of the composition of the present invention is above 15 and preferably above 20.

[2] = Cleaning of mineral oil from stainless steel plates; settings: immersion 5 minutes at ambient temperature
Procedure: (§1) A small quantity of commercial lubricant oil was deposited on the surface of several 30×10 mm stainless steel plates. The mass of each plate was determined with a precision of 0.1 mg before and after deposition. The difference between these two values corresponds to the initial mass of lubricant.
(§2) Once the initial mass is obtained, each steel plate is immersed in a beaker filled with a cleaning composition at ambient temperature for 5 minutes. Thereafter, the steel plates were removed from the beaker and dried in the open air for 5 minutes. Thereafter, the mass of each plate was determined to evaluate the percentage of lubricant oil removed during the test.
A procedure similar to Example 5 was followed using commercial natural mineral oil for high pressure.

[3] = Degreasing of lubricant oil from stainless steel plates; settings: immersion 5 minutes at ambient temperature
Procedure: as §1, §2

[4] = Cleaning of silicone oil from stainless steel plates; settings: silicon oil; immersion 5 minutes at ambient temperature
Procedure: as §1, §2
A procedure similar to Example 5 was followed using silicon oil. The results were summarized as in Table 6

[5] = Evaporator cleaning (flushing); settings: flushing 10 minutes at ambient temperature; compared with HFC-245fa
Procedure: An evaporator from a refrigeration system contains a known quantity of 300 SUS mineral oil. The evaporator could be flushed with flushing agent for 10 minutes at ambient temperature. Following the flushing period, the quantity of oil and residue removed would be determined. This could be done by measuring the weight of the evaporator following flushing and evacuation of flushing agent and/or by stripping the flushing agent from the removed oil and residue and weighing that. HFC-245fa and trans-HCFO-1233zd would be used as flushing agents.

[6] = Defluxing of solder flux from stainless steel plates
Procedure: A small quantity of commercial solder flux was deposited on the surface of several 30×10 mm stainless steel plates. The mass of each plate was determined with a precision of 0.1 mg before deposition and corresponds to the tare. The plates were heated to 250° C. until fusion of the metal from the solder flux (between 1 and 2 min.). The metal could then be easily removed from the plates and only the flux remained on them.
The plates prepared with this method were dried in the open air at ambient temperature for 16 hours. The mass of each dried plate was determined with a precision of 0.1 mg before and after deposition. The difference between these two values corresponds to the initial mass of flux.
Once the initial mass was obtained, half of the steel plates are immersed in a beaker filled with a cleaning composition at ambient temperature for 30 minutes and the other half of the plates immersed in a beaker filled with the cleaning solution for 60 minutes. After the immersion, the steel plates were removed from the beakers and dried in the open air for 5 minutes. Thereafter, the mass of each plate was determined to evaluate the percentage of flux removed during the test.

[7] = Vapor pressure in high-pressure cell; format: physicochemical
Procedure: A high-pressure cell equipped with a certified pressure gauge was evacuated by a vacuum pump to remove all permanent gases. 14.21 g of 1233xf and 9.17 g of E-1233zd were then loaded into the cell individually by a stainless steel syringe pump. The high-pressure cell was placed in an orbital shaker in which temperature was controlled at the accuracy of 0.1° C. […] At each temperature the pressure was measured after one hour in order to achieve equilibrium. The accuracy of the pressure gauge was + or −0.1 psia. […] The measured pressure can be seen in Table 1.

[8] = Residual flushing agent after drying of evaporator; settings: 25 °C, air flow, 10 minutes drying; compared with trans-HCFO-1233zd
Procedure: To a clean evaporator from an air conditioning, a measured quantity of flushing liquid would be added to simulate conditions following an open-loop evaporator flushing procedure. The evaporator would be maintained at 25° C. with a slow flow of air passing through the evaporator to assist in drying. The evaporator would be dried such as for 10 minutes and then weighed to measure the quantity of flushing agent remaining.

## FC(F)(F)/C=C/Cl [E-1233zd, 1-chloro-3,3,3-trifluoropropene]
[1]
  Flash point: No
AMES testing
  Genotoxicity in AMES testing: significantly lower genotoxicity
[2]
  Removal rate: 57.2%
[3]
  Removal rate: 99.10%
[4]
  Removal rate: 99.10%
[5]
  Percentage of oil and residue removed during flushing: greater percentage
[6]; immersion 30 minutes at ambient temperature
  Removal rate for 30 mn: 36.04%
[6]; immersion 60 minutes at ambient temperature
  Removal rate for 60 mn: 26.24%
[7]; 5.0 °C
  Pressure: 9.1 psia
[7]; 15.0 °C
  Pressure: 13.7 psia
[7]; 18.5 °C
  Pressure: 14.7 psia
[7]; 25.0 °C
  Pressure: 19.7 psia
[7]; 35.0 °C
  Pressure: 27.5 psia
[7]; temperature range 5 to 15 °C
  Pressure versus atmospheric pressure: lower than atmospheric

## CC(F)(Cl)Cl [HCFC 141b, 1,1-dichloro-1-fluoroethane, reference compound]
[3]
  Removal rate: 99.60%
[4]
  Removal rate: 98.40%

## Cl/C=C/Cl [TDCE, trans-1,2-dichloroethylene]
[1]
  Flash point: Yes
[2]
  Removal rate: 88.51%

## COC(C)=O [Methyl acetate]
[2]
  Removal rate: 31.67%

## dichloropentafluoropropane [HCFC 225]
[1]
  Flash point: No

## FC(F)(F)/C=C/Cl [cis-HCFO-1233zd, 1-chloro-3,3,3-trifluoropropene]
[8]
  Quantity of flushing agent remaining after drying: more cis-HCFO-1233zd would remain

## C=C(Cl)C(F)(F)F [1233xf, 2-chloro-3,3,3-trifluoropropene, reference compound]
[7]; 5.0 °C
  Pressure: 11.5 psia
[7]; 15.0 °C
  Pressure: 16.8 psia
[7]; 18.5 °C
  Pressure: 18.3 psia
[7]; 25.0 °C
  Pressure: 23.8 psia
[7]; 35.0 °C
  Pressure: 32.7 psia
[7]; temperature range 15 to 25 °C
  Pressure versus atmospheric pressure: > 14.7 psia
